Results on 5 molecules are retold here after patent publication US20260027221A1, “Targeted Pyrrolobenzodiazapine Conjugates” (BeOne Medicines I GmbH, priority 2023, published 2026).

“And” between values parts separate entries of the source, which are not always exact repeats. Equal values may be shown once.

Assay [1] deals with A375 cells. The assay is described as follows: Compounds cellular killing in A375 cancer line (Cell Titer-Glo, 6 days). The class given is cell-based, human. The note with it: 6 days incubation, cell viability by Cell Titer-Glo; for EC50 / Emax: Homo sapiens, A-375, 144 h. As to the method:
A375 (ATCC, CRL-1619). […] The base medium for A375 is DMEM, high glucose, GlutaMAX™ Supplement (Gibco, 10566024). To make the complete growth medium, fetal bovine serum was added to the base mediumat a final concentration of 10% (Gibco, 10099-141C). The cell line was grown in a humidified 5% CO2 atmosphere at 37° C., and was regularly tested for the presence of mycoplasma with MycoAlert™ PLUS Mycoplasma Detection Kit (Lonza, LT07-710).
(§1) Payload direct killing by compounds 1-1 to 1-22 was assessed in A375 and Calu-6 cancer cell lines. Cells were seeded at 1E3/well (A375) 2E3/well (Calu-6) into 96-well plates (Greiner: 655090), 100 μL/well, and incubated at 37° C., 5% CO2, overnight. Fresh growth medium was added containing varying concentrations of compounds, 50 μL/well, and incubated at 37° C., 5% CO2, for 6 days. The cell viability detected by Cell Titer-Glo (Promega, G7573), 70 μL/well. The plates were allowed to incubate at room temperature for 10 minutes to stabilize the luminescent signal. The plates were analyzed with a microplate reader.
For orientation: ATP-based viability assays read luminescence as a measure of living cells.

Assay [2] relates to Calu-6 cells. As to the kind of experiment: Compounds cellular killing in Calu-6 cancer line (Cell Titer-Glo, 6 days). The class given is cell-based, human. Conditions: 6 days incubation, cell viability by Cell Titer-Glo; for EC50 / Emax: Homo sapiens, Calu-6, 144 h. As to the method: Calu-6 (ATCC, HTB-56). […] The base medium for Calu-6 is Eagle's Minimum Essential Medium (ATCC, 30-2003). To make the complete growth medium, fetal bovine serum was added to the base mediumat a final concentration of 10% (Gibco, 10099-141C). The cell line was grown in a humidified 5% CO2 atmosphere at 37° C., and was regularly tested for the presence of mycoplasma with MycoAlert™ PLUS Mycoplasma Detection Kit (Lonza, LT07-710).
as §1

As usually defined, the EC50 is the concentration needed to bring the measured effect to its halfway point. A higher EC50 goes with a less potent agent. Take `COc1cc2c(cc1OC/C=C/CCOc1cc3c(cc1OC)C(=O)N1CC4(CC4)C[C@H]1C=N3)N=C[C@@H]1CC3(CC3)CN1C2=O` [Compound 1-19, (11aS,11a″S)-8,8″-(((E)-pent-2-ene-1,5-diyl)bis(oxy))bis(7-methoxy-1,11a-dihydro-3H,5H-spiro[benzo[e]pyrrolo[1,2-a][1,4]diazepine-2,1′-cyclopropan]-5-one)]: the figures for the EC50 in assay [1] and in assay [2] were 165 pM and 52 pM, respectively. In addition, the Emax amounted to 88.7% in assay [1] and 90.6% in assay [2].

Take `COc1cc2c(cc1OCCCCCOc1cc3c(cc1OC)C(=O)N1Cc4ccccc4C[C@H]1C=N3)N=C[C@@H]1CC3(CCN1C2=O)CC3` [Compound 1-20, (S)-2-methoxy-3-((5-(((S)-2-methoxy-12-oxo-6a,9,10,12-tetrahydro-7H-spiro[benzo[e]pyrido[1,2-a][1,4]diazepine-8,1′-cyclopropan]-3-yl)oxy)pentyl)oxy)-7,12-dihydrobenzo[5,6][1,4]diazepino[1,2-b]isoquinolin-14(6aH)-one]: the values for the EC50 in assay [1] and in assay [2] were 64 pM and 16 pM, respectively. Also, the Emax is 95.9% in assay [1] and 98.3% in assay [2].

With `C=C1C[C@H]2C=Nc3cc(OCCNCCOc4cc5c(cc4OC)C(=O)N4CC(=C)C[C@H]4C=N5)c(OC)cc3C(=O)N2C1` [Compound 1-21, (11aS,11a'S)-8,8′-((azanediylbis(ethane-2,1-diyl))bis(oxy))bis(7-methoxy-2-methylene-1,2,3,11a-tetrahydro-5H-benzo[e]pyrrolo[1,2-a][1,4]diazepin-5-one)], in assay [1], the midpoint of the response, the EC50, lay at 4200 pM and the Emax worked out at 97.8%. In assay [2], this molecule yielded an EC50 of 1200 pM and an Emax of 99.3%.

As to `C=C1C[C@H]2C=Nc3cc(OCCN(C)CCOc4cc5c(cc4OC)C(=O)N4CC(=C)C[C@H]4C=N5)c(OC)cc3C(=O)N2C1` [Compound 1-22, (11aS,11a′S)-8,8′-(((methylazanediyl)bis(ethane-2,1-diyl))bis(oxy))bis(7-methoxy-2-methylene-1,2,3,11a-tetrahydro-5H-benzo[e]pyrrolo[1,2-a][1,4]diazepin-5-one)], the EC50 in assay [1] was 5500 pM; in assay [2] it was 1300 pM. Moreover, the Emax stood at 97.3% in assay [1] and 99.2% in assay [2].

Regarding `COc1cc2c(cc1OCCCCCOc1cc3c(cc1OC)C(=O)N1C=C(C)C[C@H]1C=N3)N=C[C@@H]1CC(C)=CN1C2=O` [Ref-1-1, reference compound], in assay [1], the “A375 Emax (%)” value is 99.9% and 99.6%; the Emax is 99.8%. In assay [2], the “Calu-6 Emax (%)” value was 99.8% and 99.3% and 93.1%; the Emax was found to be 99.5%.
